Laboratory results: US11034735B2, “Hybrid peptide, set of hybrid peptides, composition, uses of the hybrid peptide, method for inducing an immune response and kits” (priority 2017, dated 2021)

Legend:
mouse serum = assay: Western blotting, synthetic peptides with serum of inoculated mice; conditions: in vivo
Experimental: (§1) The immunogenicity of each peptide was checked immunizing BALB/c mice, approximately six weeks old, with […] of protein (Machado et al., 1994). The mice were divided into groups of three animals each. The groups were: P28, P41, P42, P44, P50, P51, P53, P54, Pool (mice inoculated with a pool of peptides, in the case with all 8 hybrid peptides) and negative control group. For inoculations, the peptides were emulsified in Freund's complete adjuvant (Sigma) and inoculated intramuscularly in the quadriceps. Two further immunizations, on the 14th and 28th day after inoculation, were performed using incomplete Freund's adjuvant (Sigma). Each inoculation was carried out using 10 μg/mL of each peptide. Negative control mice were inoculated with sterile saline in place of the peptides and also emulsified in adjuvant. Blood samples were collected by intracardiac puncture on the 10th day after the last immunization and the sera obtained were stored at −20° C. until evaluated by Dot-ELISA and Western-blotting assays.
Samples of synthetic peptides were analyzed by Western blotting. To this end, initially, the samples were submitted to polyacrylamide gel electrophoresis under denaturing conditions, according to the technique recommended by Laemmli (1970). Based on the sample volume 2× concentrated sample buffer (250 mM Tris-HCl pH 6.8, 40% glycerol, 8% SDS, 20% β-mercaptoethanol and 0.008% bromophenol blue) was added. The samples were homogenized, incubated for 5 minutes at 100° C. and applied to the gel. The separation gel was prepared at a concentration of 12% polyacrylamide in buffer (1.875 M Tris, pH 8.8 and 1% SDS) and 5% polyacrylamide for buffer packaging gel (1.875 M Tris, pH 6.8 and 0.5% SDS). Electrophoresis was performed in Tris-Glycine Running Buffer (50 mM Tris, pH 8.6, 1.92 M Glycine and 1% SDS) at 100 V for up to 3 hours and 30 minutes at 0° C. in the Mini-Protean II system (Bio-Rad).
Synthetic peptides processed on the polyacrylamide gel (SDS-PAGE) were transferred to the nitrocellulose membrane for analysis by Wester blot (TOWBIN et al., 1979). The nitrocellulose membrane (Merck) was previously incubated in ice cold transfer buffer (0.58% Tris Base pH 8.3, 20% methanol and 0.29% glycine). For this, the membrane was placed in the “Mini Trans-Blot” (Bio-Rad) electrotransfer system containing the same buffer and the transfer was performed at 100 V for 90 minutes. The membrane was incubated in TBS-Tween (10 mM Tris-HCl pH 7.5; 150 mM NaCl, 0.05% Tween-20) plus 5% skim milk powder for 12 hours at 4° C. under low agitation, for saturation of non-specific binding sites. The membrane was then incubated with each serum from each mouse alone or incubated with calf serum for 2 hours at room temperature under slow stirring. […]

serum of BALB/c mice = assay: Dot-ELISA, synthetic peptides with serum of immunized BALB/c mice; assay type: in vivo; design: key to Peptide Reactivity, Mice serum inoculated with isolated peptides 1 / Peptide Reactivity, Mice serum inoculated with isolated peptides 2 / Peptide Reactivity, Mice serum inoculated with isolated peptides 3 / Peptide Reactivity, Mice serum inoculated with pool / Peptide Reactivity, Mice serum inoculated with Saline (Negative Control) / Reaction with pool of peptides, Mouse 1 serum / Reaction with pool of peptides, Mouse 2 serum / Reaction with pool of peptides, Mouse 3 serum: — = Did not react; X = Reacted; conditions: for Peptide Reactivity, Mice serum inoculated with pool / Peptide Reactivity, Mice serum inoculated with isolated peptides 1 / Peptide Reactivity, Mice serum inoculated with isolated peptides 2 / Peptide Reactivity, Mice serum inoculated with isolated peptides 3 / Peptide Reactivity, Mice serum inoculated with Saline (Negative Control) / Reaction with pool of peptides, Mouse 1 serum / Reaction with pool of peptides, Mouse 2 serum / Reaction with pool of peptides, Mouse 3 serum: Dot-ELISA; for Peptide Reactivity, Mice serum inoculated with pool: mice inoculated with pool of all 8 hybrid peptides; for Peptide Reactivity, Mice serum inoculated with isolated peptides 1: serum of mouse 1 inoculated with the same isolated peptide; for Peptide Reactivity, Mice serum inoculated with isolated peptides 1 / Peptide Reactivity, Mice serum inoculated with isolated peptides 2 / Peptide Reactivity, Mice serum inoculated with isolated peptides 3: serum 1:25; for Peptide Reactivity, Mice serum inoculated with isolated peptides 2: serum of mouse 2 inoculated with the same isolated peptide; for Peptide Reactivity, Mice serum inoculated with isolated peptides 3: serum of mouse 3 inoculated with the same isolated peptide; for Peptide Reactivity, Mice serum inoculated with Saline (Negative Control): serum of saline-inoculated mice; for Reaction with pool of peptides, Mouse 1 serum / Reaction with pool of peptides, Mouse 2 serum / Reaction with pool of peptides, Mouse 3 serum: pool of peptides as antigen; for Reaction with pool of peptides, Mouse 1 serum: serum of mouse 1 inoculated with the labelled peptide; for Reaction with pool of peptides, Mouse 2 serum: serum of mouse 2 inoculated with the labelled peptide; for Reaction with pool of peptides, Mouse 3 serum: serum of mouse 3 inoculated with the labelled peptide
Experimental: as §1
(§2) Synthetic peptides were used as antigen in the Dot-ELISA technique to verify their ability to react with specific antibodies present in the serum of BALB/c mice, as well as in calf serum, all immunized. The technique was performed as described by Machado et al. (1994), with minor modifications. Briefly, small nitrocellulose discs were cut using a paper punch and each disc arranged in a flat bottom 24-well culture plate well. 4 μg/mL of each synthetic peptide alone, as well as the peptide pool, were deposited on each disc. The discs were dried at room temperature and then blocked for 12 hours at room temperature with […] TBS buffer (0.1 M Tris, 0.1 M NaCl and 0.5% Tween 20; TBS-Tween 20), plus 5% skim milk powder. Test sera were diluted 1:25 (mice and calf) in TBS-Tween 20 containing 5% skim milk powder and incubated for 120 minutes at room temperature and under constant stirring. Then the discs were subjected to two washes with TBS-Tween 20 plus 5% skim milk powder and one wash with TBS-Tween 20 (5 min interval between each wash). To each mouse serum disc was added the alkaline phosphate-coupled anti-mouse conjugate (anti-mouse IgG goat IgG, Sigma A-3562) diluted 1:30,000 in TBS-Tween 20 plus 5% of skim milk powder. To calf serum-containing discs, it was added alkaline phosphate-coupled anti-bovine conjugate (anti-cattle IgG rabbit IgG, Sigma A-0705) diluted 1:30,000 in TBS-Tween 20, plus 5% skim milk powder. After one hour incubation with the appropriate conjugates, washes were followed as in the previous step.

calf serum = assay: Dot-ELISA, synthetic peptides with serum of calf immunized with peptide pool; assay type: in vivo; design: key to Peptide Reactivity, Calf serum inoculated with pool: — = Did not react; X = Reacted; conditions: Dot-ELISA; peptide as antigen; calf inoculated with pool SEQ ID NO: 20, 21, 23, 25, 26
Excerpt: The immunogenicity of the synthetic peptides was verified by immunizing a previously tested calf with negative results for Anaplasma marginale, Babesia bovis and Babesia bigemina by serology and PCR. For inoculations, a peptide pool (SEQ ID NO: 20, SEQ ID NO: 21, SEQ ID NO: 23, SEQ ID NO: 25 and SEQ ID NO: 26) was emulsified in Freund's complete adjuvant (Sigma) and, inoculated intramuscularly in the quadriceps. Two further immunizations, on the 14th and 28th day after inoculation, were performed using incomplete Freund's adjuvant (Sigma). Each inoculation was done using 100 μg/mL of each peptide. Blood samples were collected by jugular puncture on the 10th day after the last immunization and the sera obtained were stored at −20° C. until evaluated by Dot-ELISA and Western-blotting assays.
as §2

A. marginale antigen = assay: Indirect immunofluorescence reaction, sera of inoculated mice; assay type: in vivo; conditions: serum 1:25
Experimental: as §1
The prepared A. marginale antigen-containing blood smear slides were removed from the freezer and thawed at room temperature. […] After drying the slides, they were coverslipped using a buffered glycerine at a 9:1 ratio of glycerine/0.5 M carbonate-bicarbonate buffer pH 9.6 and then observed under a fluorescence microscope (Olympus, BX-FLA).

With “LAESTEGNLEEVWILGKGGGGDELSKKVCGKGTTSGSTNQCG (Synthetic hybrid peptide) [P42]” the “Western blotting reaction of serum of mice inoculated with synthetic peptide” value (mouse serum) was “reacted”, the “Peptide Reactivity, Mice serum inoculated with pool” value (serum of BALB/c mice; peptide as antigen) was “—” and the “Peptide Reactivity, Mice serum inoculated with isolated peptides 1” value (serum of BALB/c mice; peptide as antigen) was “X”. The “Peptide Reactivity, Mice serum inoculated with isolated peptides 2” value (serum of BALB/c mice; peptide as antigen) was “—”, the “Peptide Reactivity, Mice serum inoculated with isolated peptides 3” value (serum of BALB/c mice; peptide as antigen) was “—” and the “Peptide Reactivity, Mice serum inoculated with Saline (Negative Control)” value (serum of BALB/c mice; peptide as antigen) was “—”. The “Reaction with pool of peptides, Mouse 1 serum” value (serum of BALB/c mice) was “—”, the “Reaction with pool of peptides, Mouse 2 serum” value (serum of BALB/c mice) was “—” and the “Reaction with pool of peptides, Mouse 3 serum” value (serum of BALB/c mice) was “—”. For the same sequence, the “Dot-ELISA reaction of sera from mice inoculated with hybrid peptides alone” value (serum of BALB/c mice; peptide as antigen) was “reacted”, the “Peptide Reactivity, Calf serum inoculated with pool” value (calf serum) was “—” and the “Indirect immunofluorescence reaction for A. marginale, inoculated mice” value (A. marginale antigen) was “positive”.
“GASTDDAAAAAKIVAMAYGRGGGGTIVPVKTFDDGALTYFQFYDNNKVIP (Synthetic hybrid peptide) [P50]” was tested, and the “Peptide Reactivity, Mice serum inoculated with pool” value (serum of BALB/c mice; peptide as antigen) was “—”, the “Peptide Reactivity, Mice serum inoculated with isolated peptides 1” value (serum of BALB/c mice; peptide as antigen) was “—” and the “Peptide Reactivity, Mice serum inoculated with isolated peptides 2” value (serum of BALB/c mice; peptide as antigen) was “—”. The “Peptide Reactivity, Mice serum inoculated with isolated peptides 3” value (serum of BALB/c mice; peptide as antigen) was “—”, the “Peptide Reactivity, Mice serum inoculated with Saline (Negative Control)” value (serum of BALB/c mice; peptide as antigen) was “—” and the “Reaction with pool of peptides, Mouse 1 serum” value (serum of BALB/c mice) was “—”. The “Reaction with pool of peptides, Mouse 2 serum” value (serum of BALB/c mice) was “—”, the “Reaction with pool of peptides, Mouse 3 serum” value (serum of BALB/c mice) was “—” and the “Peptide Reactivity, Calf serum inoculated with pool” value (calf serum) was “—”. For the same sequence, the “Indirect immunofluorescence reaction for A. marginale, inoculated mice” value (A. marginale antigen) was “positive”.
